Measurements published in patent publication US8309790B2, “Animal models for demyelination disorders” (University of Chicago, priority 2005, dated 2012).
“And” between values parts separate entries of the source, which are not always exact repeats. Equal values may be shown once.

Key:
mice with EAE = experiment: EAE, CNS delivery of INF-γ at the onset of EAE, double (PERK+/+) and triple (PERK+/−) mice; format: in vivo; conditions: for Mean of maximum clinical score (mean ± S.D.): 0-5 point scale; for Day of onset of disease (PID: postimmunization day): n = 25; for expression of iNOs, TNF-a, IL-2, IL-12 and IL-10 in the spinal cord: PID 14 (EAE onset), DOX− vs DOX+
[1] = tested on: ER stress markers BIP, CHOP, p-eIF-2α; experiment: ER stress markers in the corpus callosum of cuprizone treated mice expressing IFN-γ; format: in vivo
Experimental: Repression of remyelination by IFN-γ is associated with ER stress. […] To determine whether IFN-γ interferes with endoplasmic reticulum (ER) function in remyelinating oligodendrocytes, the expression of ER stress markers was monitored in the corpus callosum of mice expressing IFN-γ. The study was performed using the transgenic mice described in Example 1.
The level of mRNA encoding ER stress associated genes binding immunoglobulin protein/78 KDa glucose regulated protein (BIP/GRP78) and the CAATT enhancer-binding protein homologous protein/growth and DNA damage protein 153 (CHOP/GADD153), was determined using real time PCR, as described in Example 1 in the corpus callosum of the cuprizone treated mice of Example 1. The probes, sense and antisense primers that were used were: […]
The level of phosphorylated eIF-2α, which inhibits nucleotide exchange on the eIF-2 complex and attenuates most protein synthesis, was analyzed by Western blot, and the expression was colocalized by immunostaining CC1 antibodies as described above. Western blot analysis was performed as follows. The corpus callosum from 3 mice was rinsed in ice cold phosphate-buffered saline (PBS) and pooled, and immediately homogenized in 5 volumes of Triton X-100 buffer (20 mM HEPES pH 7.5, 150 mM NaCl, 1% Triton X-100, 10% glycerol, 1 mM EDTA, 10 mM tetrasodium pyrophosphate, 100 mM NaF, 17.5 mM β-glycerophosphate, 10 mM phenylmethylsulfonyl fluoride, 15 μg/ml aprotonin, and 6 μg/ml pepstatin A) using a motorized homogenizer. After incubation on ice for 15 min, the extracts were cleared by centrifugation at 14,000 rpm twice for 30 min each. The protein content of each extract was determined by protein assay (Bio-Rad). The extracts (40 μg) were separated by sodium dodecyl sulfate-polyacrylamide gel electrophoresis and transferred to nitrocellulose. […] The following primary antibodies were used: anti-eIF-2α (1:500; Santa Cruz, Santa Cruz, Calif.), anti-p-eIF-2α (1:1000, Cell signaling Technology), anti-CHOP (1:500; Santa Cruz) and anti-actin (1:1000; Sigma, St Louis, Mo.).

[2] = tested on: cultured rat oligodendrocytes; experiment: IFN-γ treatment of cultured rat oligodendrocytes (apoptosis, ER stress markers); format: cell-based
Experimental: To test whether apoptosis of oligodendrocytes that is induced by INF-γ affects ER stress, the effect on the morphology, the degree of apoptosis and the expression of ER markers was studied in a culture of oligodendrocyte precursor cells (OPC). Oligodendrocyte progenitors were cultured from neonatal rat brains (Baerwald, et al. (1998) J. Neurosci. Res. 52: 230-239). A mixed glial culture was grown in flasks in medium containing 10% fetal bovine serum (FBS), and when the astrocyte layer became confluent (10-14 days), oligodendrocyte progenitors were separated from astrocytes and microglia using an orbital shaker. Cells, greater than 95% of which were A2B5 positive, GFAP negative and CD11b negative, were cultured in 0.5% FBS containing medium, which also contained PDGF (10 ng/ml) and FGF (5 ng/ml) (both from R&D Systems, Minneapolis, Minn.). Then cells were switched to 0.5% FBS medium without PDGF and FGF for differentiation. After 5 days in the differentiating medium, approximately 40% of cells were positive for myelin protein 2′3′-cyclic nucleotide 3′-phosphodiestaerase (CNP). 70 U/ml recombinant rat IFN-γ (Calbiochem, La Jolla, Calif.) was added to the cells that had been allowed to differentiation for 5 days. After 5 d in the differentiating medium, about 40% of the cells were CNP positive. 70 U/ml of recombinant rat INF-γ (Calbiochem) was added to the cells that had been allowed to differentiate for 5d. To examine the oligodendroglial response to general ER stress-inducing agents, progenitor cells that had been cultured in differentiation medium for 5 or 7 days were treated with 2 μg/ml of tunicamycin (Sigma Aldrich) for 6 hours.
The level of apoptosis of the OPC cells was determined by double staining CNP (1:200; Stemberger Monoclonals, Lutherville, Md.) and TUNEL using the ApopTag Kit (Serologicals Corp., Norcross, […].) and following the manufacturer's instructions. Apoptosis was also evaluated by measuring the activity of caspase-3 in oligodendrocyte lysates using the Fluorimetric Caspase 3 Assay Kit (Sigma, St. Louis, Mo.), according to the manufacturer's instructions.
To determine whether INF-γ affects ER function, the RNA expression of ER markers binding immunoglobulin protein (BIP), CAAT enhancer binding protein homologous protein (CHOP), and caspase 12 was determined using real time PCR. RNA was isolated from cultured cells and mice brain using Trizol reagent (Invitrogen, Carlsbad, Calif.) and treated with DNAaseI (Invitrogen) to eliminate genomic DNA. Reverse transcription was performed using Superscript First Strand Synthesis System for RT-PCR kit (Invitrogen). Real-time PCR was performed with iQ Supermix (Bio-Rad, Hercules, Calif.) on a Bio-Rad iQ real-time PCR detection system (Bio-Rad). The following primers and probes (Integrated DNA Technologies Inc., Coralville, Iowa) for real-time PCR were used: mouse CHOP sense primer […] (SEQ ID NO: 34); mouse CHOP antisense primer […] (SEQ ID NO: 35); CHOP probe […] (SEQ ID NO: 36); mouse BIP sense primer […] (SEQ ID NO: 31); mouse BIP antisense primer […] (SEQ ID NO: 32); BIP probe […] (SEQ ID NO: 33); mouse caspase 12 sense primer […] (SEQ ID NO: 37); and mouse caspase antisense primer […] (SEQ ID NO: 38).
To determine the effect of INF-γ on the level of phosphorylated eIF-2α and caspase 12 proteins, western blot analysis was performed using the following antibodies anti-eIF-2α (1:500; Santa Cruz), anti-p-eIF-2α (1:1000, Cell signaling Technology), anti-caspase-12 (1:500; Santa Cruz) and anti-actin (1:1000; Sigma, St Louis, Mo.), and according to the following protocol. […]

[3] = corpus callosum of DOX− mice, Western blot

Question: How did the “Mean of maximum clinical score (mean ± S.D.)” value (mice with EAE; DOX− double mice) turn out when interferon-γ [IFN-γ] was run?
Answer: The value was 1.63 ± 0.51.

Question: What about the “MBP mRNA in the spinal cord compared to age-matched naïve mice” value (mice with EAE; DOX− double mice, PID17, real-time PCR) of the same substance?
Answer: Its value is “not significantly decreased”.

Question: What about the “Day of onset of disease (PID: postimmunization day)” value (mice with EAE; DOX− double mice) of the same substance?
Answer: The value was 14.7 ± 1.4.

Question: And the “Incidence of hind limb paralysis” value (mice with EAE; DOX− double mice, listed as INF-γ)?
Answer: The value was 2 of 25 and 2/25.

Question: What about the “Incidence of hind limb paralysis” value (mice with EAE; DOX− triple mice (PERK+/−)) of the same substance?
Answer: Its value is 18/25.

Question: What about the “Mean of maximum clinical score (mean ± S.D.)” value (mice with EAE; DOX− triple mice (PERK+/−)) of the same substance?
Answer: Its value is 2.71 ± 1.11.

Question: What about the “Day of onset of disease (PID: postimmunization day)” value (mice with EAE; DOX− triple mice (PERK+/−)) of the same substance?
Answer: The value was 13.6 ± 0.8.

Question: What about the “expression of iNOs, TNF-a, IL-2, IL-12 and IL-10 in the spinal cord” value (mice with EAE) of the same substance?
Answer: The value was “strongly enhanced”.

Question: What about the “expression of iNOs, TNF-a, IL-2, IL-12 and IL-10 in the spinal cord” value (mice with EAE; listed as INF-γ) of the same substance?
Answer: The value was “increased”.

Question: What about the “expression of IL-2 and IL-5 in the spinal cord” value (mice with EAE; PID 14, DOX− vs DOX+) of the same substance?
Answer: Its value is “did not affect”.

Question: What about the “CD3 positive T cell infiltration in the spinal cord” value (mice with EAE; at EAE onset) of the same substance?
Answer: Its value is “did not significantly affect”.

Question: What about the “CD11b positive monocyte infiltration in the spinal cord” value (mice with EAE; at EAE onset) of the same substance?
Answer: The value was “increased”.

Question: And the “CD11b positive monocyte infiltration” value (mice with EAE; at the peak of disease)?
Answer: Its value is “did not change”.

Question: And the “expression of iNOs or TNF-γ” value (mice with EAE; at the peak of disease)?
Answer: Its value is “did not significantly affect”.

Question: And the EAE disease course (mice with EAE; mice heterozygous for the PERK mutation)?
Answer: Its EAE disease course is “did not ameliorate”.

Question: And the “PERK-eIF2α pathway in oligodendrocytes (p-PERK, p-eIF2α, CC1 colocalization)” value (mice with EAE; spinal cord, EAE onset)?
Answer: The value was “markedly activated”.

Question: What about the “level of CHOP protein” value [1, 3] of the same substance?
Answer: Its value is “approximately 1.7 fold”.

Question: And the “level of phosphorylated eIF-2α (p-eIF-2α)” value [1, 3]?
Answer: Its value is “approximately 1.8 fold”.

Question: And the “level of mRNA for BIP and CHOP” value ([1]; corpus callosum, DOX− compared to control DOX+, real time PCR)?
Answer: The value was “approximately 2 fold”.

Question: And the “caspase-3 activity in the cell lysates” value ([2]; 70 U/ml IFN-γ)?
Answer: The value was “markedly increased”.

Question: What about the “apoptosis, TUNEL and CNP double labeling” value ([2]; 70 U/ml IFN-γ for 48 h) of the same substance?
Answer: The value was “induced apoptosis in a significant number of oligodendrocytes”.

Question: And the cell morphology ([2]; 70 U/ml IFN-γ for 48 h, cells differentiated 5 days)?
Answer: The cell morphology was “abnormal morphological changes”.

Question: What about the “level of phosphorylated eIF-2α (p-eIF-2α)” value ([2]; 70 U/ml IFN-γ, Western blot) of the same substance?
Answer: Its value is “significantly elevated”.

Question: What about the caspase-12 expression ([2]; 70 U/ml IFN-γ, real-time PCR) of the same substance?
Answer: The caspase-12 expression was “induction of caspase-12 was observed”.

Question: What about the “levels of mRNA encoding BIP/GRP78 and CHOP/GADD153” value ([2]; 70 U/ml IFN-γ, real-time PCR) of the same substance?
Answer: The value was 2 to 3 times.

Question: And the “level of the active fragment of caspase-12” value ([2]; after 48 h of IFN-γ treatment, Western blot)?
Answer: Its value is “strongly elevated”.
